Patent US4868193A, “Styryl tetrazoles and anti-allergic use thereof” (Rorer Pharmaceutical Corporation, priority 1986, dated 1989)
Counter-ions that a name gives are not always drawn. Like-named read-outs stand apart in the source and are kept apart here.

Key:
[1] = system: LTC4-induced contraction of guinea pig peripheral lung strips; assay: In vitro assay to identify leukotriene antagonist compounds (guinea pig lung strips), vs LTC4; assay type: cell-based; conditions: Cavia porcellus, 50% reduction of muscle response, read-out: In Vitro I50
Experimental: (§1) In Vitro Assay to Identify Leukotriene Antagonist Compounds […] Peripheral strips of guinea pig lungs are prepared and hung in tissue baths according to the procedure described by Drazen et al. Male guinea pigs (Charles River, 250-400 g) are sacrificed by cervical dislocation and their lungs rapidly removed. The individual lobes are dissected free and rinsed in Assay Buffer which is continuously aerated with 95% oxygen-5% carbon dioxide. After the lobes are extensively rinsed, a strip of lung tissue, approximately 2 mm thick and 5-8 cm long, is cut off the sharpest and most peripheral portion of each lobe. The peripheral edge is cut almost completely around the outside of the lobe so that a U-shaped strip is obtained. These strips are rinsed in Assay Buffer and then connected with surgical silk thread to the support rods from the tissue baths. The rods are adjusted in the baths and the strips connected to the pressure transducers. The tissue baths are aerated with 95% oxygen-5% carbon dioxide and maintained at 37°. The tension on these strips is adjusted to 500 mg with "re-zeros" the pen deflection on the previously calibrated polygraph. Tissues are initially washed with fresh buffer every 5-10 minutes for about 30 minutes. Thereafter, tissues were washed with fresh assay buffer at least every 20 minutes. Normalizing Muscle Contractions and Testing of Compounds 1. After the tissues have been repeatedly washed and allowed to equilibrate in the tissue bath, they are challenged with 1μM histamine. [Usually 10 μl of a 1 mM stock solution are added to the baths.] After maximum concentrations have been obtained, then tissues are washed and allowed to relax back to baseline tension. This histamine challenge procedure is repeated at least 1 or 2 more times to obtain a repeatable control response. […] Leukotriene (usually 0.4 units/ml) is added after the desired preincubation time and the muscle response is recorded. […] From this curve the concentration responding to the 50% reduction of the muscle concentration is calculated as the ^I 50 value. […]

[2] = system: LTD4 (leukotriene D4)-induced contraction of guinea pig peripheral lung strips; assay: In vitro assay to identify leukotriene antagonist compounds (guinea pig lung strips), vs LTD4; assay type: cell-based; conditions: 50% reduction of muscle response, read-out: In Vitro I50
Experimental: as §1

[3] = system: LTD4 (leukotriene D4)-induced cutaneous wheal formation; assay: Leukotriene D4-induced wheal formation in the guinea pig; set-up: species or system guinea pig (male Hartley); conditions: Cavia porcellus, po, 1 h, p.o., 0.1 μg LTD4 intradermally, given one hour before Evans blue dye, read-out: In Vivo LTD4 Wheal, ED50
Experimental: Leukotriene D4 -Induced Wheal formation in the Guinea Pig Leukotriene D4 (LTD4) increases vascular permeability in guinea pig skin. LTD4 antagonists are tested for oral activity in a model of LTD4 -induced cutaneous wheal formation in the guinea pig. Male Hartley guinea pigs are given either vehicle (polyethylene glycol 400) or test compound by gauge one hour before intravenous injection of 1% Evans blue dye. Immediately after dye injection, 0.1 μg of LTD4 (in a volume of 0.1 ml) is injected intradermally at two separate dorsal sites. Thirty minutes later, the animals are sacrificed by carbon dioxide asphyxiation, the dorsal skins reflected, and glued wheal areas measured. Mean values±standard error for wheal areas in vehicle- and drug-treated groups are determined. Inhibition of wheal formation is calculated by comparison of drug-treated and control groups.

IC50 [1]	IC50 ([2]; hydrochloride)	IC50 ([2]; Cavia porcellus)	SMILES	ED50 [3]
500 nM			C(=Cc1nnn[nH]1)c1ccc(OCc2ccc3ccccc3n2)cc1 [Example 2C, 5-[4-(Quinolin-2-yl-methoxy)styryl]-tetrazole hydrochloride]	
150 nM	80 nM	60 nM	C(=Cc1nnn[nH]1)c1cccc(OCc2ccc3ccccc3n2)c1.Cl [Example 1C, 5-[3-(Quinolin-2-yl-methoxy)styryl]-tetrazole hydrochloride]	22 mg/kg
1200 nM		650 nM	N#CC=Cc1cccc(OCc2ccc3ccccc3n2)c1 [Example 1B, 3-(Quinolin-2-yl-methoxy)-cinnamylnitrile]	
